Reference: the supplement of paper PMC10307832

Key:
Assay in all cases: relative viability (nuclei count vs DMSO), 5 days (fraction); higher = more cells survive
Carboplatin + OSI-027 = compound: C1CC(C1)(C(=O)O)C(=O)O.[NH2-].[NH2-].[Pt+2] [Carboplatin] + COc1cccc2cc(-c3nc([C@H]4CC[C@H](C(=O)O)CC4)n4ncnc(N)c34)[nH]c12 [OSI-027] (partner 0.5 µM)
Method in brief: (§1)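 Dosing by pin tool came one day after lung cancer cell lines were seeded in 1536-well plates, using either one drug or a fixed anchor-drug dose plus five library-drug doses (not always all listed) in √10 steps. After 5 days, nuclei were counted on 4× images. Relative viability is treated-well nuclei count divided by vehicle-well nuclei count, and values are medians of duplicate plates.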

MLN4924 + Alpelisib = compound: NS(=O)(=O)OC[C@@H]1C[C@@H](n2ccc3c(N[C@H]4CCc5ccccc54)ncnc32)C[C@@H]1O [MLN4924] + Cc1nc(NC(=O)N2CCC[C@H]2C(N)=O)sc1-c1ccnc(C(C)(C)C(F)(F)F)c1 [Alpelisib] (partner 2 µM)
Method in brief: as §1

GSK126 + OSI-027 = compound: CC[C@H](C)N1C=C(C2=C(C=C(C=C21)C3=CN=C(C=C3)N4CCNCC4)C(=O)NCC5=C(C=C(NC5=O)C)C)C [GSK126] + COc1cccc2cc(-c3nc([C@H]4CC[C@H](C(=O)O)CC4)n4ncnc(N)c34)[nH]c12 [OSI-027] (partner 0.5 µM)
Method in brief: as §1

Carboplatin + Vorinostat = compound: C1CC(C1)(C(=O)O)C(=O)O.[NH2-].[NH2-].[Pt+2] [Carboplatin] + O=C(CCCCCCC(=O)Nc1ccccc1)NO [Vorinostat] (partner 1 µM)
Method in brief: as §1

| Cell Line | relative viability (Carboplatin + OSI-027; first compound 0.08 µM) | relative viability (Carboplatin + OSI-027; first compound 0.253 µM) | relative viability (Carboplatin + OSI-027; first compound 0.8 µM) | relative viability (Carboplatin + OSI-027; first compound 2.53 µM) | relative viability (Carboplatin + OSI-027; first compound 8 µM) | relative viability (MLN4924 + Alpelisib; first compound 0.04 µM) | relative viability (MLN4924 + Alpelisib; first compound 0.1265 µM) | relative viability (MLN4924 + Alpelisib; first compound 0.4 µM) | relative viability (MLN4924 + Alpelisib; first compound 1.265 µM) | relative viability (MLN4924 + Alpelisib; first compound 4 µM) | relative viability (GSK126 + OSI-027; first compound 0.08 µM) | relative viability (GSK126 + OSI-027; first compound 0.253 µM) | relative viability (GSK126 + OSI-027; first compound 0.8 µM) | relative viability (GSK126 + OSI-027; first compound 2.53 µM) | relative viability (GSK126 + OSI-027; first compound 8 µM) | relative viability (Carboplatin + Vorinostat; first compound 0.08 µM) | relative viability (Carboplatin + Vorinostat; first compound 0.253 µM) | relative viability (Carboplatin + Vorinostat; first compound 0.8 µM) | relative viability (Carboplatin + Vorinostat; first compound 2.53 µM) | relative viability (Carboplatin + Vorinostat; first compound 8 µM) |
| --- | --- | --- | --- | --- | --- | --- | --- | --- | --- | --- | --- | --- | --- | --- | --- | --- | --- | --- | --- | --- |
| NCI-H2023 | 0.481 | 0.424 | 0.318 | 0.198 | 0.123 | 0.731 | 0.528 | 0.224 | 0.0584 | 0.0729 | 0.595 | 0.388 | 0.447 | 0.495 | 0.527 | 0.628 | 0.733 | 0.434 | 0.299 | 0.11 |
| ABC-1 | 0.551 | 0.509 | 0.547 | 0.335 | 0.299 | 1.18 | 0.95 | 0.352 | 0.264 | 0.262 | 0.462 | 0.525 | 0.532 | 0.492 | 0.539 | 1.53 | 1.33 | 0.834 | 1.18 | 0.407 |
| LC-2-ad | 0.877 | 0.825 | 0.778 | 0.696 | 0.404 | 0.834 | 0.729 | 0.41 | 0.153 | 0.0751 | 1.02 | 0.868 | 0.902 | 0.862 | 0.985 | 0.724 | 0.746 | 0.659 | 0.728 | 0.594 |
| NCI-H460 | 0.778 | 0.708 | 0.631 | 0.332 | 0.0817 | 0.677 | 0.688 | 0.662 | 0.0819 | 0.0199 | 0.843 | 0.615 | 0.622 | 0.718 | 0.656 | 0.761 | 0.629 | 0.582 | 0.235 | 0.076 |
| NCI-H1915 | 0.616 | 0.576 | 0.673 | 0.601 | 0.408 | 1.03 | 0.865 | 0.892 | 0.216 | 0.17 | 0.609 | 0.622 | 0.704 | 0.655 | 0.594 | 0.508 | 0.506 | 0.513 | 0.48 | 0.299 |
| NCI-H1299 | – | – | – | – | – | 1.03 | 1.07 | 0.71 | 0.333 | 0.263 | – | – | – | – | – | – | – | – | – | – |
| HOP-62 | 0.905 | 0.808 | 0.823 | 0.777 | 0.726 | 0.903 | 0.627 | 0.29 | 0.0619 | 0.0676 | 0.888 | 0.845 | 0.869 | 0.867 | 0.798 | 0.654 | 0.662 | 0.635 | 0.664 | 0.542 |
| EPLC-272H | 0.299 | 0.287 | 0.291 | 0.259 | 0.247 | 1.05 | 0.957 | 0.131 | 0.136 | 0.195 | 0.295 | 0.309 | 0.318 | 0.353 | 0.303 | 0.559 | 0.377 | 0.569 | 0.337 | 0.293 |
| NCI-H647 | 0.724 | 0.637 | 0.692 | 0.57 | 0.575 | 1.04 | 0.653 | 0.18 | 0.0485 | 0.0516 | 0.69 | 0.528 | 0.63 | 0.649 | 0.692 | 0.39 | 0.493 | 0.609 | 0.646 | 0.175 |
| NCI-H1792 | 0.724 | 0.691 | 0.824 | 0.679 | 0.566 | 0.685 | 0.758 | 0.944 | 0.441 | 0.21 | 0.643 | 0.796 | 0.679 | 0.786 | 0.675 | – | – | – | – | – |
| NCI-H2009 | 0.699 | 0.597 | 0.61 | 0.56 | 0.402 | 0.987 | 0.791 | 0.299 | 0.151 | 0.114 | 0.789 | 0.544 | 0.64 | 0.682 | 0.72 | 0.75 | 0.771 | 0.723 | 0.704 | 0.477 |
| NCI-H1563 | 0.821 | 0.751 | 0.773 | 0.754 | 0.775 | 1.36 | 1.31 | 0.898 | 0.564 | 0.566 | 0.789 | 0.785 | 0.863 | 0.803 | 0.753 | – | – | – | – | – |
| NCI-H1650 | 0.736 | 0.593 | 0.653 | 0.574 | 0.341 | – | – | – | – | – | 0.834 | 0.594 | 0.703 | 0.684 | 0.681 | 0.64 | 0.584 | 0.599 | 0.459 | 0.271 |
| NCI-H1648 | 0.238 | 0.258 | 0.247 | – | 0.265 | – | – | – | – | – | 0.248 | – | 0.265 | 0.242 | 0.252 | 0.527 | 0.544 | 0.434 | 0.351 | 0.357 |
| IA-LM | – | – | – | – | – | 0.494 | 0.2 | 0.153 | 0.0773 | 0.0621 | – | – | – | – | – | 0.952 | 1.05 | 1.05 | 0.913 | 0.81 |
| ChaGo-K-1 | 0.614 | 0.473 | 0.527 | 0.42 | 0.316 | – | – | – | – | – | 0.609 | 0.611 | 0.562 | 0.545 | 0.544 | 0.752 | 0.704 | 0.649 | 0.577 | 0.4 |
| Calu-6 | – | – | – | – | – | 1.09 | 1.07 | 0.388 | 0.14 | 0.148 | – | – | – | – | – | – | – | – | – | – |
| NCI-H1703 | – | – | – | – | – | 0.22 | 0.177 | 0.189 | 0.135 | 0.121 | – | – | – | – | – | – | – | – | – | – |
| EBC-1 | – | – | – | – | – | 0.78 | 0.768 | 0.276 | 0.132 | 0.151 | – | – | – | – | – | – | – | – | – | – |
| SW 900 | 0.726 | 0.533 | 0.49 | 0.465 | 0.412 | – | – | – | – | – | 0.605 | 0.505 | 0.502 | 0.473 | 0.466 | 0.476 | 0.522 | 0.501 | 0.528 | 0.519 |
| NCI-H522 | 0.741 | 0.711 | 0.567 | 0.685 | 0.7 | – | – | – | – | – | 0.651 | 0.731 | 0.779 | 0.638 | 0.686 | 0.882 | 0.904 | 0.944 | 0.968 | 0.669 |
| A549 | – | – | – | – | – | 0.657 | 0.748 | 0.61 | 0.05 | 0.05 | – | – | – | – | – | – | – | – | – | – |
